The test deals with HC11 cells. As to the kind of experiment: Time course of luciferase expression after nucleoporation of HC11 cells. It is filed as cell-based, mouse. As to conditions: luciferase activity up to 10 h after nucleoporation, normalized for Luc-A60 delivered. As to the method: Two methods, electroporation and nucleoporation, were used to deliver RNA into cells. In case of electroporation, 5 μg of RNA were introduced into 10^7 HC11 cells in a total volume 400 μl of serum-reduced RPMI 1640 medium in a Gene pulser cuvette (4 mm gap) with a Bio-Rad Genepulser™ set at 0.22 kV and 960 μF. Following discharge, the cells were washed twice with PBS, centrifuged for 2 min 300×g at room temperature, resuspended in prewarmed complete medium, and placed at 37° C. Nucleoporation was performed with an Amaxa Nucleofector II (Amaxa Biosystems) in accordance with manufacture's recommendations. One microgram of RNA was introduced into 10^6 HC11 cells with Nucleofector Solution V and the set of recommended regimens (program T-024).
For cytoplasmic RNA extraction, 2×10^5 cells were lysed in 175 μl of lysis buffer (50 mM Tris-HCl, pH 8.0, 140 mM NaCl, 1.5 mM MgCl2, 0.5% (v/v) Igepal (Sigma), and 1 mM dithiothreitol). […] Luciferase activity of cell extracts was measured according to the manufacturer's protocol (Promega).
We also determined the overall accumulation of luciferase, as measured by its enzymatic activity, as a function of time for mRNAs capped with m2^7,2′-OGp3G, m2^7,2′-OGppspG (D1), and m2^7,2′-OGppspG (D2). […] Luciferase activity measured in the supernatant was normalized for the amount of Luc-A60 delivered into the cells. […]

m2^7,2′-OGppspG (D2) [Compound 5b]: the “overall accumulation of luciferase” value is reported as “The most luciferase accumulated”.

Source of the values: US8153773B2, “Synthesis and use of anti-reverse phosphorothioate analogs of the messenger RNA cap” (Board of Supervisors of Louisiana State University and …, priority 2007, dated 2012).
